The test system of the series is CYP3A4. As to the kind of experiment: Human CYP3A4 induction assay (mRNA, cryopreserved human hepatocytes). As to conditions: 10 uM test compound, 72 hours, percent of control (rifampin positive control).
Description: Human CYP3A4 Induction Assay
Cryopreserved human hepatocytes were seeded in 96-well collagen coated plates at 70,000 cells per well in hepatocyte plating media (HPM, final concentrations: 1× Dulbecco's Modified Eagle's Medium, 0.1 μM dexamethasone, 10% fetal bovine serum, 1×ITS, 1×PSG) followed by incubation at 37° C. under 5% CO2 and 90% relative humidity for 2 days to allow hepatocytes to form a confluent layer. On Day 3, hepatocytes were treated with either test compound or rifampin (20 μM, positive control for CYP3A induction) prepared in hepatocyte incubation media ((HIM, final concentrations: 1× William's Medium E, 0.1 μM dexamethasone, 1×ITS, 1×PSG). Treatment was performed for 72 hours with either 2 concentrations (2 μM or 10 μM) or a range of concentrations (0.001 μM to 100 μM) of the test compound to obtain full dose-response curve. Fresh media containing the relevant concentrations of the test compound was replaced every day until the samples were processed. After 72 hours of incubation, samples were processed for mRNA analysis using bDNA technology using manufacturer's instructions (Affymetrix, Fremont, CA). Cell viability was tested at the end of the experiment using MTT assay kit (Roche Diagnostics, Basel, Switzerland). Data was analyzed and presented as percent of control (POC) and Emax and EC50 obtained when appropriate according to guidance from Center for Drug Evaluation and Research (CDER), 2006, Guidance for Industry, Drug Interaction Studies—Study Design, Data Analysis, and Implications for Dosing and Labeling.
For `COc1cc(C2CC(F)(F)C2)c(F)cc1-n1c(=O)ccc2cc(S(=O)(=O)Nc3ccon3)ccc21` (atropisomer, axis not shown; (P)) [Example 4, (P)-1-(4-(3,3-difluorocyclobutyl)-5-fluoro-2-methoxyphenyl)-N-(isoxazol-3-yl)-2-oxo-1,2-dihydroquinoline-6-sulfonamide], the “Hu CYP3A4 mRNA Induction (10 uM POC)” value was found to be 14.71%.
Under `COc1cc([C@H]2C[C@](F)(C(F)(F)F)C2)c(Cl)cc1-n1c(=O)ccc2cc(S(=O)(=O)Nc3ccon3)ccc21` (atropisomer, axis not shown; (P)) [Example 10, cis-(P)-1-(5-chloro-4-(3-fluoro-3-(trifluoromethyl)cyclobutyl)-2-methoxyphenyl)-N-(isoxazol-3-yl)-2-oxo-1,2-dihydroquinoline-6-sulfonamide] stands 5.66%.
The value for `COc1cc([C@H]2C[C@@](F)(C(F)(F)F)C2)c(Cl)cc1-n1c(=O)ccc2cc(S(=O)(=O)Nc3ccon3)ccc21` (atropisomer, axis not shown; (P)) [Example 11, trans-(P)-1-(5-chloro-4-(3-fluoro-3-(trifluoromethyl)cyclobutyl)-2-methoxyphenyl)-N-(isoxazol-3-yl)-2-oxo-1,2-dihydroquinoline-6-sulfonamide] was 7.29%; that for `COc1cc(C2CCC2)c(F)cc1-n1c(=O)ccc2cc(S(=O)(=O)Nc3ccon3)ccc21` (atropisomer, axis not shown; (P)) [Example 14, (P)-1-(4-cyclobutyl-5-fluoro-2-methoxyphenyl)-N-(isoxazol-3-yl)-2-oxo-1,2-dihydroquinoline-6-sulfonamide] was 18.3%; that for `COc1cc([C@H]2C[C@H](C(F)(F)F)C2)c(F)cc1-n1c(=O)ccc2cc(S(=O)(=O)Nc3ncccn3)ccc21` (atropisomer, axis not shown; (P)) [Example 15, trans-(P)-1-(5-fluoro-2-methoxy-4-(3-(trifluoromethyl)cyclobutyl)phenyl)-2-oxo-N-(pyrimidin-2-yl)-1,2-dihydroquinoline-6-sulfonamide] was 36%.
Under `COc1cc([C@H]2C[C@@H](C(F)(F)F)C2)c(Cl)cc1-n1c(=O)ccc2cc(S(=O)(=O)Nc3ncccn3)ccc21` (atropisomer, axis not shown; (P)) [Example 16, cis-(P)-1-(5-chloro-2-methoxy-4-(3-(trifluoromethyl)cyclobutyl)phenyl)-2-oxo-N-(pyrimidin-2-yl)-1,2-dihydroquinoline-6-sulfonamide] stands 130.1%.
As for `COc1cc([C@H]2C[C@H](C(F)(F)F)C2)c(Cl)cc1-n1c(=O)ccc2cc(S(=O)(=O)Nc3ncccn3)ccc21` (atropisomer, axis not shown; (P)) [Example 17, trans-(P)-1-(5-chloro-2-methoxy-4-(3-(trifluoromethyl)cyclobutyl)phenyl)-2-oxo-N-(pyrimidin-2-yl)-1,2-dihydroquinoline-6-sulfonamide], the “Hu CYP3A4 mRNA Induction (10 uM POC)” value was determined as 61.91%.
On to `COc1cc(C2CCC2)c(Cl)cc1-n1c(=O)ccc2cc(S(=O)(=O)Nc3ncccn3)ccc21` (atropisomer, axis not shown; (P)) [Example 18, (P)-1-(5-chloro-4-cyclobutyl-2-methoxyphenyl)-2-oxo-N-(pyrimidin-2-yl)-1,2-dihydroquinoline-6-sulfonamide], for which the “Hu CYP3A4 mRNA Induction (10 uM POC)” value was found to be 20.78%.
For `COc1cc([C@H]2C[C@H](C(F)(F)F)C2)c(Cl)cc1-n1c(=O)ccc2cc(S(=O)(=O)Nc3cccnn3)ccc21` (atropisomer, axis not shown; (P)) [Example 19, trans-(P)-1-(5-chloro-2-methoxy-4-(3-(trifluoromethyl)cyclobutyl)phenyl)-2-oxo-N-(pyridazin-3-yl)-1,2-dihydroquinoline-6-sulfonamide], the “Hu CYP3A4 mRNA Induction (10 uM POC)” value was 60.73%.
Under `COc1cc([C@H]2C[C@H](C(F)(F)F)C2)c(C)cc1-n1c(=O)ccc2cc(S(=O)(=O)Nc3ccon3)ccc21` (atropisomer, axis not shown; (P)) [Example 20, trans-(P)—N-(isoxazol-3-yl)-1-(2-methoxy-5-methyl-4-(3-(trifluoromethyl)cyclobutyl)phenyl)-2-oxo-1,2-dihydroquinoline-6-sulfonamide] stands 42.22%; under `COc1cc(C2CCC2)c(Cl)cc1-n1c(=O)ccc2cc(S(=O)(=O)Nc3ccon3)ccc21` (atropisomer, axis not shown; (P)) [Example 21, (P)-1-(5-chloro-4-cyclobutyl-2-methoxyphenyl)-N-(isoxazol-3-yl)-2-oxo-1,2-dihydroquinoline-6-sulfonamide], 17.07%.
In the case of `COc1cc(C2CCC2)c(C)cc1-n1c(=O)ccc2cc(S(=O)(=O)Nc3ccon3)ccc21` (atropisomer, axis not shown; (P)) [Example 22, (P)-1-(4-cyclobutyl-2-methoxy-5-methylphenyl)-N-(isoxazol-3-yl)-2-oxo-1,2-dihydroquinoline-6-sulfonamide], the “Hu CYP3A4 mRNA Induction (10 uM POC)” value came to 24.14%.
As to `COc1cc(C2CCC2)c(F)cc1-n1c(=O)ccc2cc(S(=O)(=O)Nc3cccnn3)ccc21` (atropisomer, axis not shown; (P)) [Example 23, (P)-1-(4-cyclobutyl-5-fluoro-2-methoxyphenyl)-2-oxo-N-(pyridazin-3-yl)-1,2-dihydroquinoline-6-sulfonamide], the “Hu CYP3A4 mRNA Induction (10 uM POC)” value turned out to be 14.37%.
With `COc1cc(C2CCC2)c(F)cc1-n1c(=O)ccc2cc(S(=O)(=O)Nc3ncco3)ccc21` (atropisomer, axis not shown; (P)) [Example 24, (P)-1-(4-cyclobutyl-5-fluoro-2-methoxyphenyl)-N-(oxazol-2-yl)-2-oxo-1,2-dihydroquinoline-6-sulfonamide], the “Hu CYP3A4 mRNA Induction (10 uM POC)” value amounted to 89.26%.
The value for `COc1cc(C2CCC2)ccc1-n1c(=O)ccc2cc(S(=O)(=O)Nc3ccon3)ccc21` (atropisomer, axis not shown; (P)) [Example 25, (P)-1-(4-cyclobutyl-2-methoxyphenyl)-N-(isoxazol-3-yl)-2-oxo-1,2-dihydroquinoline-6-sulfonamide] was 18.57%; that for `COc1cc(C2CCC2)ccc1-n1c(=O)ccc2cc(S(=O)(=O)Nc3ncccn3)ccc21` (atropisomer, axis not shown; (P)) [Example 26, (P)-1-(4-cyclobutyl-2-methoxyphenyl)-2-oxo-N-(pyrimidin-2-yl)-1,2-dihydroquinoline-6-sulfonamide] was 14.58%; that for `COc1cc(C2CCC2)c(C)cc1-n1c(=O)ccc2cc(S(=O)(=O)Nc3ncccn3)ccc21` (atropisomer, axis not shown; (P)) [Example 27, (P)-1-(4-Cyclobutyl-2-Methoxy-5-Methylphenyl)-2-Oxo-N-(Pyrimidin-2-Yl)-1,2-Dihydroquinoline-6-Sulfonamide] was 48.14%.
Consider `COc1cc(C2CCC2)c(F)cc1-n1c(=O)ccc2cc(S(=O)(=O)Nc3ncccn3)ccc21` (atropisomer, axis not shown; (P)) [Example 28, (P)-1-(4-cyclobutyl-5-fluoro-2-methoxyphenyl)-2-oxo-N-(pyrimidin-2-yl)-1,2-dihydroquinoline-6-sulfonamide], for which the “Hu CYP3A4 mRNA Induction (10 uM POC)” value is 60.29%.

The values above are taken from patent US12240839B2, “Cyclobutyl dihydroquinoline sulfonamide compounds” (AMGEN INC., priority 2020, dated 2025).
